The source of these data is patent US20240252535A1, “CELLULAR COMPOSITION FOR TREATMENT OF DISEASES, DISORDERS OR CONDITIONS AND METHOD OF USE” (priority 2020, published 2024).

For one assay, the system named is Raji cells. Nature of the assay: CAR-T cell killing of luciferase-expressing Raji cells after pretreatment of CAR-T cells with serotonergic agonist. It counts as cell-based, human. To be noted: for enhancement of killing of Raji cells: CD19 CAR-T cells preincubated one hour with 5×10^−5, 1×10^−4 or 2×10^−4 M agonist, washed, co-cultured 4 hours, versus unstimulated CAR-T cells; for level of killing of Raji cells: E:T ratio 3:1, agonist-stimulated CAR-T cells, 1% Triton-X100 control set as 100% killing. The protocol: Pergolide mesylate and 8-OH-DPAT (Sigma) were each dissolved in dimethyl sulfoxide (DMSO) to 2×10^−2 M. The solutions were subsequently diluted in Basal CAR-T medium (ProMab (Richmond, CA)) supplemented with 10% fetal bovine serum, 100U/mL sodium penicillin G (Rafa, Jerusalem) and 1000U/mL streptomycin (Rafa, Jerusalem), in a serial manner, to the indicated final concentrations. CD19 scFv-4-1BB-CD3ζ CAR-T cells (CAT. PM-CAR1002-1M) purchased from ProMab (Richmond, CA) were incubated with the diluted pergolide mesylate or 8-OH-DPAT for one hour, at 37° C. and 5% C02. The cells were pelleted by centrifugation and washed with regular cell growth medium to remove pergolide mesylate and 8-OH-DPAT prior to co-culture with target luciferase Raji cells.
Luciferase Raji cells stably expressing luciferase (Raji/NF-kB Reporter (Luc) stable cell line Cat. CL-1280) were purchased from FenicsBio (Halethorpe, MD) and grown in RPMI medium (Gibco Cat. 21875-034) supplemented with 10% fetal bovine serum, 100U/mL sodium penicillin G (Rafa, Jerusalem) and 1000 U/mL streptomycin (Rafa, Jerusalem), at 37° C. and 5% C02.
Target 2.5×10^3 Raji-luc cells were cultured, at 37° C. and 5% CO2, in each well of 96-well plates, either in medium, medium containing 1% Triton-X100 (Sigma), or with effector CAR-T cells, at an effector:target cell ratio of 0.5:1, 1:1, or 3:1 for 4 hours. Four replicate wells were prepared for each type of sample. Following the incubation period, the cells were incubated with 50 μL of reconstituted reagent (Bright-Glo Luciferase Assay System, E2620) for 2 min to detect the fluorescence intensity (FLUOstar OMEGA). The fluorescence intensity of the 1% Triton-X100 control was set as 100% killing.

A further assay concerns the target 5-HT2A (Homo sapiens, UniProt P28223). To be noted: cited from earlier work.
The next assay concerns the target T1, 5-HT1A receptors (Homo sapiens, UniProt P08908).
T1 sequence (P08908 1-422): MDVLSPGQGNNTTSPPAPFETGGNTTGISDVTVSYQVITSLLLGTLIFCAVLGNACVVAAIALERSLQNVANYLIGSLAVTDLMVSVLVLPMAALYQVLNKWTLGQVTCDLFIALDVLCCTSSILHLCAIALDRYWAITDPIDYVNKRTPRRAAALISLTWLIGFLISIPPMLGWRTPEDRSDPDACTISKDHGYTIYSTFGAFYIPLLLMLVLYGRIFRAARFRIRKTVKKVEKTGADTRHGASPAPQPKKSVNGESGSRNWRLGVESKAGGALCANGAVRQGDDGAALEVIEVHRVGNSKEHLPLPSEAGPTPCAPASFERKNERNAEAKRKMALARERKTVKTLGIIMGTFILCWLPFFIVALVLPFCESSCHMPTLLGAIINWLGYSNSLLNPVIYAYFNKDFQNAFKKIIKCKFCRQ
To be noted: cited from earlier work.

Another assay has as its system ovarian cancer. Conditions: administration to tumor-bearing mice; cited from earlier work.

Counter-ions that a name gives are not always drawn.

5-HT2A, sequence (P28223 whole entry): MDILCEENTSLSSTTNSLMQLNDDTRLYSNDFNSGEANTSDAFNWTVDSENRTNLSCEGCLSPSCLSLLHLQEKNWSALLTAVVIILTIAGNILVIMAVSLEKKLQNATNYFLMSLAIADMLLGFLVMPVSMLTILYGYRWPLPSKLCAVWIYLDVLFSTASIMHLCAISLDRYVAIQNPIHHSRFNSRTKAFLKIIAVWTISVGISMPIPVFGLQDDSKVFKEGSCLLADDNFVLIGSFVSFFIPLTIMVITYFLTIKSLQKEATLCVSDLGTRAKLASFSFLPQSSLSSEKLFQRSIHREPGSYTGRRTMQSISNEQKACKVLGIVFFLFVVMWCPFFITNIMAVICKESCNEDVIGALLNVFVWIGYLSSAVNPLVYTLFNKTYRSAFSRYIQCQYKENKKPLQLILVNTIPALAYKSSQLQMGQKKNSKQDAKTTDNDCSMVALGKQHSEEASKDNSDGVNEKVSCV

For the compound `CCCN(CCC)C1CCc2cccc(O)c2C1` (stereo not shown) [8-OH-DPAT, 8-hydroxy-2-(di-n-propylamino)tetralin], in the assay on Raji cells, the “enhancement of killing of Raji cells” value is on record as 2-3 fold and the “level of killing of Raji cells” value is recorded as “approximately 100%”.
Taken in the same sequence, the figures for `CCCN1C[C@H](CSC)C[C@@H]2c3cccc4[nH]cc(c34)C[C@H]21` [pergolide mesylate] were 2-3 fold and “approximately 100%”.
The term Ki denotes the equilibrium dissociation constant of an inhibitor or competing ligand from its target. `CN(C)CCc1c[nH]c2cccc(OP(=O)(O)O)c12` [psilocybin]: the Ki at 5-HT2A is 6 nM; on 5-HT1A receptors, 190 nM.
With `NCCc1c[nH]c2ccc(O)cc12` [serotonin, 5-hydroxytryptamine], in the assay on ovarian cancer, the “time to disease progression” value is on record as “decreased” and the tumor weight result is “increased”.
Turning to `CN[C@H]1CC[C@@H](c2ccc(Cl)c(Cl)c2)c2ccccc21` [sertraline], in the assay on ovarian cancer, the “time to disease progression” value is “decreased” and the tumor weight result is “increased”.
